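Values below derive from 48-hour exposures of cells grown in 96-well plates, with endpoints linearly interpolated between the two concentrations bracketing the appropriate inhibition level. The concentration for 50% growth inhibition is given as GI50.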 The source made the active and inactive calls. Rule as the data show it: active = GI50 up to about 1.1 µM and inactive = higher.
Tests used:
Assay in all cases: DTP human tumour cell line panel, 48 h
786-0 = tested on: 786-0
UACC-62 = tested on: UACC-62
SNB-19 = tested on: SNB-19
HOP-62 = tested on: HOP-62
OVCAR-4 = tested on: OVCAR-4
OVCAR-5 = tested on: OVCAR-5
NCI-H460 = tested on: NCI-H460
K562 = tested on: K562
SW-620 = tested on: SW-620
EKVX = tested on: EKVX
UO-31 = tested on: UO-31
M14 = tested on: M14
SK-MEL-2 = tested on: SK-MEL-2
NCI-H226 = tested on: NCI-H226
SF-539 = tested on: SF-539
HOP-92 = tested on: HOP-92
A498 = tested on: A498
LXFL 529 = tested on: LXFL 529
KM12 = tested on: KM12
BT-549 = tested on: BT-549

Measured: GI50

COC(=O)C1(C(=O)OC)CC2c3c(c4ccccc4n3C)CC(C1=O)N2Cc1ccccc1 (stereo not drawn)
inactive: 786-0 > 100 µM | UACC-62 89.9 µM | SNB-19 > 100 µM | HOP-62 > 100 µM | OVCAR-4 76.6 µM | OVCAR-5 > 100 µM | NCI-H460 > 100 µM | K562 > 100 µM | SW-620 > 100 µM | EKVX > 100 µM | UO-31 > 100 µM | M14 > 100 µM | SK-MEL-2 > 100 µM | NCI-H226 > 100 µM | SF-539 > 100 µM | HOP-92 > 100 µM | A498 > 100 µM | LXFL 529 > 100 µM | KM12 > 100 µM

CCCCCCCCC(C)CCCCCCCCC(=O)OCC(COP(=O)([O-])OCC[N+](C)(C)C)OC(=O)CCCCCCCCC(C)CCCCCCCC (stereo not drawn)
inactive: 786-0 > 100 µM | UACC-62 > 100 µM | SNB-19 > 100 µM | HOP-62 > 100 µM | OVCAR-4 > 100 µM | OVCAR-5 > 100 µM | NCI-H460 > 100 µM | K562 > 100 µM | SW-620 > 100 µM | EKVX > 100 µM | UO-31 > 100 µM | M14 > 100 µM | SK-MEL-2 > 100 µM | NCI-H226 > 100 µM | HOP-92 > 100 µM | A498 > 100 µM | LXFL 529 > 100 µM | KM12 > 100 µM

Cc1ccc2[nH]c(=O)c(C(C#N)c3ccccc3)nc2c1 (stereo not drawn)
inactive: 786-0 41.8 µM | UACC-62 26.5 µM | SNB-19 27.4 µM | HOP-62 > 100 µM | OVCAR-4 30.1 µM | OVCAR-5 55.3 µM | NCI-H460 72.3 µM | K562 47.9 µM | SW-620 43.8 µM | EKVX 30.5 µM | UO-31 27.9 µM | M14 41.8 µM | SK-MEL-2 20 µM | NCI-H226 30.1 µM | SF-539 46.7 µM | HOP-92 32.7 µM | A498 > 100 µM | LXFL 529 32.7 µM | KM12 32 µM

CCOC(=O)NC(=O)c1cn(CCN2CCN(C(=O)NCCCCCCNC(=O)N3CCN(CCn4cc(C(=O)NC(=O)OCC)c(=O)n(CCN(CC)CC)c4=O)CC3)CC2)c(=O)n(CCC(CC)CC)c1=O
inactive: 786-0 > 100 µM | UACC-62 > 100 µM | SNB-19 > 100 µM | HOP-62 > 100 µM | OVCAR-4 > 100 µM | OVCAR-5 > 100 µM | NCI-H460 > 100 µM | K562 > 100 µM | SW-620 > 100 µM | EKVX > 100 µM | UO-31 > 100 µM | M14 > 100 µM | SK-MEL-2 > 100 µM | SF-539 > 100 µM | HOP-92 > 100 µM | A498 > 100 µM | LXFL 529 > 100 µM | KM12 > 100 µM

COc1ccc(C2C(Cl)C(=O)N2NC(=O)c2ccc(N)cc2)cc1OC (stereo not drawn)
inactive: 786-0 2.43 µM | UACC-62 7.29 µM | SNB-19 13.9 µM | HOP-62 15.9 µM | OVCAR-4 5.69 µM | BT-549 5.04 µM | OVCAR-5 19.1 µM | NCI-H460 20.1 µM | K562 3.12 µM | SW-620 3.27 µM | EKVX 16.5 µM | UO-31 12.1 µM | M14 8.43 µM | SK-MEL-2 11.9 µM | NCI-H226 18.7 µM | SF-539 7.8 µM | HOP-92 2 µM | A498 16.6 µM | LXFL 529 1.95 µM | KM12 1.52 µM

OCC(O)C(O)C(O)C1SC(c2ccccc2)=NN1c1ccccc1 (stereo not drawn)
inactive: 786-0 37 µM | UACC-62 47 µM | SNB-19 49.8 µM | HOP-62 38.9 µM | OVCAR-4 > 88.3 µM | BT-549 > 100 µM | OVCAR-5 > 84.9 µM | NCI-H460 > 78 µM | K562 > 70.1 µM | SW-620 > 100 µM | EKVX > 95.7 µM | UO-31 66.2 µM | M14 83 µM | SK-MEL-2 41.7 µM | NCI-H226 > 76 µM | SF-539 41.2 µM | HOP-92 27 µM | A498 > 88.5 µM | LXFL 529 > 95.5 µM | KM12 > 100 µM

O=c1c2cc(-c3ccccc3)sc2nc2sc(-c3ccccc3)nn12
inactive: 786-0 > 100 µM | UACC-62 > 100 µM | SNB-19 > 100 µM | HOP-62 85.3 µM | OVCAR-4 > 100 µM | OVCAR-5 > 100 µM | NCI-H460 > 100 µM | K562 > 100 µM | SW-620 > 100 µM | EKVX > 100 µM | UO-31 > 100 µM | M14 > 100 µM | SK-MEL-2 > 100 µM | NCI-H226 > 100 µM | SF-539 > 100 µM | HOP-92 > 100 µM | A498 > 100 µM | LXFL 529 > 100 µM | KM12 > 100 µM

CC(=O)c1cccc(NC(=O)C(=O)C(C2OC(=O)c3ccccc32)[N+](=O)[O-])c1 (stereo not drawn)
inactive: 786-0 > 100 µM | UACC-62 > 100 µM | SNB-19 > 100 µM | HOP-62 > 100 µM | OVCAR-4 > 100 µM | OVCAR-5 > 100 µM | NCI-H460 > 100 µM | K562 > 100 µM | SW-620 > 100 µM | EKVX > 100 µM | UO-31 60.1 µM | M14 > 100 µM | SK-MEL-2 > 100 µM | NCI-H226 > 100 µM | SF-539 > 100 µM | HOP-92 > 100 µM | A498 > 100 µM | LXFL 529 > 100 µM | KM12 > 100 µM

O=C(O)C(=O)/C=C\c1ccc(Cl)cc1
inactive: 786-0 > 100 µM | UACC-62 > 100 µM | SNB-19 > 100 µM | HOP-62 > 100 µM | OVCAR-4 > 100 µM | OVCAR-5 > 100 µM | NCI-H460 > 100 µM | K562 > 100 µM | SW-620 10.6 µM | EKVX > 100 µM | UO-31 > 100 µM | M14 > 100 µM | SK-MEL-2 > 100 µM | NCI-H226 > 100 µM | SF-539 > 100 µM | HOP-92 80.9 µM | A498 > 100 µM | LXFL 529 > 100 µM | KM12 > 100 µM

COC(=O)C1=C(O)c2cc(OC)c(OC)c(OC)c2C(c2ccc3c(c2)OCO3)[C@@H]1C(=O)OC (stereo partly drawn)
inactive: 786-0 3.65 µM | UACC-62 1.53 µM | HOP-62 5.53 µM | OVCAR-4 6.49 µM | OVCAR-5 > 100 µM | NCI-H460 5.47 µM | K562 3.9 µM | SW-620 2.22 µM | EKVX 25.2 µM | UO-31 6.08 µM | M14 3.03 µM | SK-MEL-2 7.48 µM | NCI-H226 8.97 µM | SF-539 2.18 µM | HOP-92 > 100 µM | A498 3.82 µM | LXFL 529 3.08 µM | KM12 2.94 µM

CCN(CC)CCCC(C)NC(=O)c1ccc2c(c1)C(=O)c1ccccc1C2=O (stereo not drawn)
inactive: 786-0 18.6 µM | UACC-62 20.5 µM | SNB-19 21.6 µM | HOP-62 27.2 µM | OVCAR-4 15.1 µM | OVCAR-5 18.9 µM | NCI-H460 16.4 µM | K562 18.3 µM | SW-620 13.6 µM | EKVX 21.3 µM | UO-31 20.1 µM | M14 18.1 µM | SK-MEL-2 19.5 µM | NCI-H226 22.3 µM | SF-539 19.2 µM | HOP-92 24.4 µM | A498 20.6 µM | LXFL 529 24.7 µM | KM12 15.4 µM

From ChEMBL document CHEMBL1201862, “PubChem BioAssay data set” (2004)
